Laboratory results: publication PMC12627862, “Therapeutic targeting of endothelial calcium signaling accelerates the resolution of lung injury” (Signal Transduction and Targeted Therapy, 2025)
Starred links: 1 amine or outer side, 2 acyl side, 3 side chain; linkers in the order of their positions; H or OH if unused. Non-standard residues stand in square brackets, D forms with d. Residues, ends and D or L forms follow the SMILES beside them. ξ: configuration not given here. Oic = O=C(O)[C@@H]1C[C@@H]2CCCC[C@@H]2N1; GABOB(3R) = O=C(C[C@@H](O)CN[*:1])[*:2]; tBuAla = CC(C)(C)C[C@H](N)C(=O)O; ξVal(3-OH) = CC(C)(O)C(N)C(=O)O; 4Amb = NCc1ccc(C(=O)O)cc1

Legend:
[1] = in vivo; conditions: male, Crl:CD (SD), rat, iv, 5 mg/kg
Method: (§1) Blood samples were collected at predefined time points (2, 10, 30, 60, 90 minutes, and 2, 4, 6, 8, and 24 hours post-dosing) from subgroups of rats, ensuring each animal contributed a limited number of samples to minimize stress. Plasma was separated by centrifugation and stored at -80 °C until analysis. Lungs were collected at selected time points (0.5, 2, 8, and 24 hours) for drug quantification. […] Pharmacokinetic parameters, including Cmax, Tmax, AUC, half-life, clearance, and volume of distribution, were calculated using Phoenix WinNonlin software.

[2] = in vitro; conditions: dog, plasma
Method: (§2) Stability assay of peptides in blood plasma of rodents, dogs, and humans. For the plasma stability assay, 5 μM of each peptide was incubated with species-specific plasma for 120 minutes and samples were taken at the required time points. Positive control used were molecules with known stability: enalapril, propantheline, and warfarin. The amount of test compound remaining at each time point was analyzed by LC-MS/MS. Appropriate control compounds for each species were also incubated.

[3] = in vitro; conditions: human, plasma
Method: as §2

[4] = test system: CD1 mice, cecal ligation and puncture; test: Polymicrobial sepsis model (CLP); assay type: in vivo, mouse
[5] = Pharmacokinetic studies in rats
Method: as §1

[6] = test system: SARS-CoV-2 (WA1/2020); assay type: in vivo, mouse
[7] = test system: splenocytes from CD1 mice; test: Cytokine release by immune cells in vitro; assay type: cell-based, mouse; conditions: 2 µg/mL LPS for 2 hours, VT-109 200 nM and 1 µM
Method: VT-109’s effect on cytokine release by immune cells in vitro. Freshly isolated splenocytes from CD1 mice were treated with 2 µg/mL LPS for 2 hours. Two different concentrations of VT-109 (200 nM and 1 µM) were tested, and the cells were treated concurrently with LPS. Untreated splenocytes served as the control. After the 2-hour incubation, MCP-1, TNF-α, KC, and IL-6 levels were measured in the growth media using mouse multiplexed ELISA array. Data are expressed as pg/mL.

[8] = test system: Pseudomonas aeruginosa; test: I.t. P. aeruginosa-induced pneumonia; assay type: in vivo, mouse
Source text: Most ARDS cases arise secondary to pneumonia, in which infectious agents directly target the alveolar epithelium. Damage to these epithelial cells disrupts the integrity of the alveolar–capillary barrier, leading to protein-rich pulmonary edema and widespread inflammation, two hallmark features of diffuse alveolar damage. Because endothelial barrier disruption is a downstream consequence in this context, we also evaluated the benefits of VT-109 treatment in a model of Pseudomonas aeruginosa–induced lung injury, the most commonly acquired hospital-associated pneumonia. Mice were infected with a sublethal intratracheal dose of 5 × 10^5 CFU Pseudomonas aeruginosa and treated with a moderately efficacious dose of VT-109 (250 nmol/kg bw) at 5 hours post-challenge. The lung tissues were collected at 24 and 48 hours for histopathological analysis of acute lung injury, neutrophil influx, and bacterial counts in BALF (Fig. 5k–n and Supplementary Fig. 4j).
Mice (CD1) were anesthetized by intraperitoneal injection of xylazine and positioned supine on a sterile surgical surface. A small midline incision was made in the neck to expose the trachea. GFP-expressing Pseudomonas aeruginosa (PA) was cultured overnight in LB broth supplemented with carbenicillin (100 µg/mL). A total volume of 30 µL PBS containing 0.5 × 10⁶ colony-forming units (CFU) was injected directly into the trachea using a sterile 28G insulin syringe. Following intratracheal instillation, mice received VT-109 (250 nmol/kg body weight) or vehicle by IV at 5- and 24-hours post-infection. Lung tissues were collected at 24 and 48 hours to assess treatment effects. The left lung was inflated with fixative and harvested for histological analysis, while the right lung was collected for bacterial quantification. For CFU analysis, the right lung was homogenized in 1 mL of sterile PBS using a bead-based tissue homogenizer. Homogenates were serially diluted and plated on LB agar containing carbenicillin (100 µg/mL). Plates were incubated overnight at 37 °C, and CFUs were counted the following day. […]

[9] = in vitro; conditions: mouse, plasma
Method: as §2

[10] = 24 hours after CLP, 18-gauge, n = 3
[11] = 24 hours after CLP, 2 µmol/kg bw i.v. 5 hours post-surgery, n = 5
[12] = BAL 24 hours after CLP, treatment at 5 hours post-surgery, Mean±Std, n = 8–10
[13] = CLP, VT-109 monotherapy 2 µmol/kg bw i.v.
[14] = PF (peritoneal fluid), head says BAL, CLP, Mean±Std
[15] = male, Crl:CD (SD), rat, in vivo, iv, 5 mg/kg
[16] = rat lungs, single IV 5 mg/kg, Phoenix WinNonlin
[17] = rat plasma, single IV 5 mg/kg, Phoenix WinNonlin

CC(C)(C)C[C@@H]1NC(=O)C[C@@H](O)CNC(=O)[C@@H]2C[C@@H]3CCCC[C@@H]3N2C(=O)[C@H](CC(C)(C)C)NC(=O)c2ccc(cc2)CNC(=O)C(C(C)(C)O)NC(=O)[C@@H](Cc2ccccc2)NC1=O (stereo partly drawn) [compound 109, (1^2S,1^3aS,1^7aS,3S,10S,13R,16S,20R)-13-benzyl-20-hydroxy-10-(2-hydroxypropan-2-yl)-3,16-dineopentyl-1^2,1^3,1^3a,1^4,1^5,1^6,1^7,1^7a-octahydro-1^1H-4,8,11,14,17,22-hexaaza-1(1,2)-indola-6(1,4)-benzenacyclotricosaphane-2,5,9,12,15,18,23-heptaone.] (cyclo([4Amb][tBuAla][Oic][GABOB(3R)][tBuAla][dF][ξVal(3-OH)]))
level at 0.167 h [1]: 23.7 µg/mL | level at 0.5 h [1]: 2.55 µg/mL | level at 1 h [1]: 0.58 µg/mL | level at 1.5 h [1]: 0.399 µg/mL | level at 2 h [1]: 0.252 µg/mL | level at 4 h [1]: 0.127 µg/mL | level at 6 h [1]: 0.0663 µg/mL | level at 8 h [1]: 0.0427 µg/mL | level at 24 h [1]: 0.0059 µg/mL | half-life at 5 μM [2]: > 8 h | remaining at 2 h, 5 μM [2]: 91.9% | half-life at 5 μM [3]: > 8 h | remaining at 2 h, 5 μM [3]: 101% | bacterial counts in the blood or peritoneal fluid ([4]; 24 hours after CLP): did not affect | phosphorylation of FOXM1 at Ser715 [4, 10]: increased phosphorylation | sepsis-induced changes of FOXM1, FOXO1, E2F3, β-catenin and p21 in lung tissue (Western blot) [4, 10]: reversed these changes | VE-cadherin and occludin expression ([4]; 24 hours after CLP, 18-gauge, to the baseline levels of sham mice): restored | alanine aminotransferase (ALT), blood [4, 11]: reduced levels | blood urea nitrogen (BUN) [4, 11]: reduced levels | bacterial colony counts in bronchoalveolar lavage fluid (BALF) ([4]; 24 hours after CLP, VT-109 monotherapy versus vehicle): markedly reduced | BAL Cytokine mGM-CSF [4, 12]: 1.21 ± 0.70 pg/mL | BAL Cytokine mIFNγ [4, 12]: 0.49 ± 0.34 pg/mL | BAL Cytokine mIL-1a [4, 12]: 0.14 ± 0.00 pg/mL | BAL Cytokine mIL-1b [4, 12]: 1.59 ± 1.01 pg/mL | BAL Cytokine mIL-4 [4, 12]: 2.79 ± 1.03 pg/mL | BAL Cytokine mIL-6 [4, 12]: 282.12 ± 522.24 pg/mL | BAL Cytokine mIL-10 [4, 12]: 2.19 ± 2.95 pg/mL | BAL Cytokine mIL-12 [4, 12]: 16.99 ± 7.90 pg/mL | BAL Cytokine mIL-17 [4, 12]: 0.14 ± 0.00 pg/mL | BAL Cytokine mKC [4, 12]: 609.75 ± 878.78 pg/mL | BAL Cytokine mMCP-1 [4, 12]: 19.17 ± 28.01 pg/mL | BAL Cytokine mMIP-1α [4, 12]: 1.16 ± 1.31 pg/mL | BAL Cytokine mRANTES [4, 12]: 2.55 ± 5.23 pg/mL | survival rate ([4]; CLP 18-gauge, VT-109 monotherapy 2 µmol/kg bw i.v., initiated 5 hours post-surgery): significantly improved the survival rate | survival ([4]; CLP 18-gauge, monotherapy: VT-109 0.5 µmol/kg bw or enrofloxacin 5 mg/kg bw): neither antibiotics nor VT-109 monotherapy (0.5 µmol/kg bw) significantly improved survival | acute lung injury (H&E, ALI score) [4, 13]: prevented the development of acute lung injury | neutrophil recruitment into lung tissue (Ly6G) [4, 13]: markedly suppressed | Cytokine mGM-CSF [4, 14]: 15.75 ± 20.22 pg/mL | Cytokine mIFNγ [4, 14]: 4.39 ± 3.00 pg/mL | Cytokine mIL-1a [4, 14]: 104.93 ± 94.65 pg/mL | Cytokine mIL-1b [4, 14]: 229.14 ± 237.82 pg/mL | Cytokine mIL-3 [4, 14]: 0.28 ± 0.00 pg/mL | Cytokine mIL-4 [4, 14]: 6.90 ± 0.83 pg/mL | Cytokine mIL-5 [4, 14]: 5.06 ± 2.77 pg/mL | Cytokine mIL-6 [4, 14]: 46833 ± 65942 pg/mL | Cytokine mIL-10 [4, 14]: 432.67 ± 490.14 pg/mL | Cytokine mIL-12 [4, 14]: 57.48 ± 43.37 pg/mL | Cytokine mIL-17 [4, 14]: 7.20 ± 5.26 pg/mL | Cytokine mKC [4, 14]: 24611 ± 34486 pg/mL | Cytokine mMCP-1 [4, 14]: 16338 ± 17531 pg/mL | Cytokine mMIP-1α [4, 14]: 5136 ± 8056 pg/mL | Cytokine mRANTES [4, 14]: 382.32 ± 397.78 pg/mL | Cytokine mTNFα [4, 14]: 29.39 ± 31.64 pg/mL | AUC(0-t) [5, 15]: 12.4 µg·h/mL | C0 [5, 15]: 46.3 µg/mL | Tmax [5, 15]: 1.98 min | Vd [5, 15]: 3.1 L/kg | clearance [5, 15]: 0.403 L/h/kg | half-life [5, 15]: 5.33 h | AUC (0-last) [5, 16]: 27219 ng·h/g | Cmax [5, 16]: 3606 ng/g | Lambda_z [5, 16]: 0.1535 h⁻¹ | half-life [5, 16]: 4.52 h | persistence of substantial amounts in the lung post dose ([5]; rat lungs, single intravenous injection): at least 24 hours | Cmax [5, 17]: 40.548 µg/mL | Lambda_z [5, 17]: 0.1299 h⁻¹ | time of peak plasma concentrations (Cmax) after dosing ([5]; rat plasma, single intravenous injection): ≤ 2 min | lung injury (ALI score) ([6]; 250 nmol/kg bw from 1 dpi): promoted the resolution of lung injury by day 7 | NFATC2 nuclear accumulation in endothelial and immune cells ([6]; 250 nmol/kg bw, 7 dpi): reduced NFATC2 nuclear accumulation | VE-cadherin junctions ([6]; 250 nmol/kg bw, 7 dpi): reannealed junctions | number of infiltrating monocytes and neutrophils in the BALF ([6]; 2 µmol/kg bw i.v.): significantly reduced | blood-brain barrier (BBB) integrity, cerebral cortex ([6]; 2 µmol/kg bw i.v., 5 dpi): restored BBB integrity | cytokine production by immune cells in vitro (MCP-1, TNFα, KC, IL-6) [7]: nor did it directly alter cytokine production | neutrophils in the lung tissues ([8]; 5 × 10^5 CFU i.t., 250 nmol/kg bw at 5 hours post-challenge, 24 and 48 hours): far fewer neutrophils | lung injury (histopathology) ([8]; 5 × 10^5 CFU i.t., 250 nmol/kg bw, 24 and 48 hours): appeared uninjured | bacterial counts ([8]; both time points, did not reach statistical significance): modest reduction | half-life at 5 μM [9]: > 8 h | remaining at 2 h, 5 μM [9]: 89.8%
